Results as given in ChEMBL document CHEMBL1201862, “PubChem BioAssay data set” (2004).
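Step 1: Grow cells in 96-well plates. Step 2: Expose to compound for 48 hours at 5 concentrations. Step 3: Interpolate endpoints linearly; if unreached, use highest concentration. GI50: concentration for 50% inhibition of growth.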 Calls of active or inactive are those of the source. No stated cut-off is given here; in the data, active = GI50 up to about 1.1 µM and inactive = higher.

Experiments:
Experiment in all cases: inhibition of tumour cell growth, NCI panel, 48 h
ACHN = system: ACHN
BT-549 = system: BT-549
HOP-62 = system: HOP-62
HOP-92 = system: HOP-92
HT-29 = system: HT-29
IGROV-1 = system: IGROV-1
K562 = system: K562
KM12 = system: KM12
MDA-N = system: MDA-N
NCI-H23 = system: NCI-H23
OVCAR-3 = system: OVCAR-3
OVCAR-4 = system: OVCAR-4
OVCAR-8 = system: OVCAR-8
PC-3 = system: PC-3
RXF 393 = system: RXF 393
SNB-19 = system: SNB-19
SNB-75 = system: SNB-75
SR = system: SR
SW-620 = system: SW-620
TK-10 = system: TK-10

| SMILES | GI50 (ACHN) | GI50 (BT-549) | GI50 (HOP-62) | GI50 (HOP-92) | GI50 (HT-29) | GI50 (IGROV-1) | GI50 (K562) | GI50 (KM12) | GI50 (MDA-N) | GI50 (NCI-H23) | GI50 (OVCAR-3) | GI50 (OVCAR-4) | GI50 (OVCAR-8) | GI50 (PC-3) | GI50 (RXF 393) | GI50 (SNB-19) | GI50 (SNB-75) | GI50 (SR) | GI50 (SW-620) | GI50 (TK-10) |
| --- | --- | --- | --- | --- | --- | --- | --- | --- | --- | --- | --- | --- | --- | --- | --- | --- | --- | --- | --- | --- |
| COc1ccc(Cc2ccccc2C(=O)O)c2ccccc12 | 31.2 µM (inactive) | 39.2 µM (inactive) | 36.6 µM (inactive) | 18.8 µM (inactive) | 28.8 µM (inactive) | 30.6 µM (inactive) | 37 µM (inactive) | 18.7 µM (inactive) | 27.6 µM (inactive) | 25.5 µM (inactive) | 20.7 µM (inactive) | 36.6 µM (inactive) | 28.5 µM (inactive) | 30.6 µM (inactive) | 44.3 µM (inactive) | 37.3 µM (inactive) | 34.4 µM (inactive) | 31.5 µM (inactive) | 31.6 µM (inactive) | 24 µM (inactive) |
| O=C1/C(=C/c2ccccc2)CN(C(=O)/C=C/c2ccccc2)C/C1=C\c1ccccc1 | 14.2 µM (inactive) | 2.26 µM (inactive) | 23.7 µM (inactive) | 25.9 µM (inactive) | 3.07 µM (inactive) | 6.95 µM (inactive) | 2.98 µM (inactive) | 4.17 µM (inactive) | 1.87 µM (inactive) | 12.4 µM (inactive) | 7.13 µM (inactive) | 6.85 µM (inactive) | 4.88 µM (inactive) | 2.03 µM (inactive) | 15.6 µM (inactive) | 8.15 µM (inactive) | 13.5 µM (inactive) | 1.3 µM (inactive) | 2.39 µM (inactive) | 16.1 µM (inactive) |
| CCN(CC)CCn1c(=O)c2cccnc2n2c3c(=O)n(C)c(=O)n(C)c3nc12 | 34.8 µM (inactive) | > 100 µM (inactive) | > 100 µM (inactive) | > 100 µM (inactive) | > 100 µM (inactive) | > 100 µM (inactive) | > 100 µM (inactive) | > 100 µM (inactive) | > 100 µM (inactive) | > 100 µM (inactive) | > 100 µM (inactive) | > 100 µM (inactive) | > 100 µM (inactive) | > 100 µM (inactive) | > 100 µM (inactive) | > 100 µM (inactive) | > 100 µM (inactive) | 38.5 µM (inactive) | 76.9 µM (inactive) | 23.2 µM (inactive) |
| COC(=O)CNC(=O)CNC(=O)CSc1nnc(COc2ccc(Cl)cc2)n1-c1ccccc1 | > 100 µM (inactive) | 24.4 µM (inactive) | > 100 µM (inactive) | 19.2 µM (inactive) | > 100 µM (inactive) | 17.9 µM (inactive) | 30.1 µM (inactive) | 21.3 µM (inactive) | 23.7 µM (inactive) | > 100 µM (inactive) | 19.8 µM (inactive) | > 100 µM (inactive) | > 100 µM (inactive) | 52.7 µM (inactive) | 15.4 µM (inactive) | 86.3 µM (inactive) | 25.4 µM (inactive) | 29 µM (inactive) | 68.1 µM (inactive) | 44.5 µM (inactive) |
| NC(CC(=O)O)(Cc1ccccc1)C(=O)O (stereo not given) | > 100 µM (inactive) | > 100 µM (inactive) | > 100 µM (inactive) | > 100 µM (inactive) | > 100 µM (inactive) | > 100 µM (inactive) | > 100 µM (inactive) | > 100 µM (inactive) | > 100 µM (inactive) | > 100 µM (inactive) | > 100 µM (inactive) | > 100 µM (inactive) | > 100 µM (inactive) | > 100 µM (inactive) | > 100 µM (inactive) | > 100 µM (inactive) | > 100 µM (inactive) | > 100 µM (inactive) | > 100 µM (inactive) | > 100 µM (inactive) |
| CSc1ncnc2c1ncn2C1OC(CO)C(O)OC1O (stereo not given) | 0.643 µM (active) | 1.83 µM (inactive) | 3.7 µM (inactive) | 0.822 µM (active) | 0.449 µM (active) | 0.897 µM (active) | 1.16 µM (inactive) | 0.789 µM (active) | 2.24 µM (inactive) | 0.721 µM (active) | 0.348 µM (active) | 10.7 µM (inactive) | 2.12 µM (inactive) | 2.26 µM (inactive) | 11.7 µM (inactive) | 10.7 µM (inactive) | 10.9 µM (inactive) | 0.619 µM (active) | 1.51 µM (inactive) | 0.219 µM (active) |
| Cc1nc(-c2ccc(Cl)cc2)cn2c1nc1ccccc12 | > 100 µM (inactive) | > 93.5 µM (inactive) | > 100 µM (inactive) | > 33.1 µM (inactive) | 99.1 µM (inactive) | 11.1 µM (inactive) | > 72.3 µM (inactive) | > 82.6 µM (inactive) | > 100 µM (inactive) | > 100 µM (inactive) | > 100 µM (inactive) | > 100 µM (inactive) | > 100 µM (inactive) | > 100 µM (inactive) | > 100 µM (inactive) | > 100 µM (inactive) | > 100 µM (inactive) | 90.6 µM (inactive) | > 100 µM (inactive) | > 100 µM (inactive) |
| Cc1cn(CCCCOC(=O)NC(CCCNC(N)=O)C(=O)O)c(=O)[nH]c1=O (stereo not given) | > 100 µM (inactive) | > 100 µM (inactive) | > 100 µM (inactive) | > 100 µM (inactive) | > 100 µM (inactive) | > 100 µM (inactive) | > 100 µM (inactive) | > 100 µM (inactive) | > 100 µM (inactive) | > 100 µM (inactive) | > 100 µM (inactive) | > 100 µM (inactive) | > 100 µM (inactive) | > 100 µM (inactive) | > 100 µM (inactive) | > 100 µM (inactive) | > 100 µM (inactive) | > 100 µM (inactive) | > 100 µM (inactive) | > 100 µM (inactive) |
| N#Cc1c(C#N)c(-c2cccc([N+](=O)[O-])c2)n(-c2ccccc2)c1N | > 100 µM (inactive) | 5.11 µM (inactive) | 49.4 µM (inactive) | 17.8 µM (inactive) | > 100 µM (inactive) | 89.1 µM (inactive) | > 100 µM (inactive) | > 100 µM (inactive) | > 100 µM (inactive) | > 100 µM (inactive) | > 100 µM (inactive) | 11.5 µM (inactive) | 99.3 µM (inactive) | > 100 µM (inactive) | 41.7 µM (inactive) | 46.8 µM (inactive) | 3.33 µM (inactive) | > 100 µM (inactive) | > 100 µM (inactive) | > 100 µM (inactive) |
| O=C1/C(=C/c2ccc3c(c2)OCO3)CCC1CN1CCOCC1 (stereo not given) | 10.7 µM (inactive) | 18 µM (inactive) | 16.3 µM (inactive) | 9.89 µM (inactive) | 5.77 µM (inactive) | 16.1 µM (inactive) | 2.03 µM (inactive) | 4.65 µM (inactive) | 2.04 µM (inactive) | 8.83 µM (inactive) | 7.93 µM (inactive) | 6.73 µM (inactive) | 7.64 µM (inactive) | 2.17 µM (inactive) | 11.4 µM (inactive) | 15.4 µM (inactive) | 14.6 µM (inactive) | 1.65 µM (inactive) | 2.07 µM (inactive) | 12.4 µM (inactive) |
| O=C(O)CP(=O)(O)O | > 100 µM (inactive) | > 100 µM (inactive) | > 100 µM (inactive) | > 100 µM (inactive) | > 100 µM (inactive) | > 100 µM (inactive) | > 100 µM (inactive) | > 100 µM (inactive) | > 100 µM (inactive) | > 100 µM (inactive) | > 100 µM (inactive) | > 100 µM (inactive) | > 100 µM (inactive) | > 100 µM (inactive) | > 100 µM (inactive) | > 100 µM (inactive) | > 100 µM (inactive) | > 100 µM (inactive) | > 100 µM (inactive) | > 100 µM (inactive) |
| CC(C)C(C/C=C1/CC(CO)(COC(=O)C2CCCCC2)OC1=O)C(C)C (stereo not given) | 13.3 µM (inactive) | 25.2 µM (inactive) | 11.7 µM (inactive) | 13.6 µM (inactive) | 27.9 µM (inactive) | 19.1 µM (inactive) | 6.79 µM (inactive) | 21.1 µM (inactive) | 19.1 µM (inactive) | 16.6 µM (inactive) | 18.5 µM (inactive) | 19.8 µM (inactive) | 17.7 µM (inactive) | 17.1 µM (inactive) | 21.5 µM (inactive) | 15 µM (inactive) | 13.8 µM (inactive) | 28 µM (inactive) | 22.3 µM (inactive) | 16.8 µM (inactive) |
| CC(C)=CCC[C@](C)(O[C@@H]1O[C@H](CO)[C@@H](O)[C@H](O)[C@H]1O)[C@H]1CC[C@]2(C)[C@@H]1[C@H](O)C[C@@H]1[C@@]3(C)CC[C@@H](O)C(C)(C)[C@@H]3[C@@H](O[C@@H]3O[C@H](CO)[C@@H](O)[C@H](O)[C@H]3O)C[C@]12C.C[C@@H]1O[C@@H](O[C@H]2[C@H](O[C@H]3C[C@]4(C)[C@H](C[C@H](O)[C@@H]5[C@@H]([C@@]6(C)CC[C@H](C(C)(C)O)O6)CC[C@]54C)[C@@]4(C)CC[C@H](O)C(C)(C)[C@H]34)O[C@H](CO)[C@@H](O)[C@@H]2O)[C@H](O)[C@H](O)[C@H]1O | > 100 µM (inactive) | > 100 µM (inactive) | > 100 µM (inactive) | > 100 µM (inactive) | > 100 µM (inactive) | > 100 µM (inactive) | > 100 µM (inactive) | > 100 µM (inactive) | > 100 µM (inactive) | > 100 µM (inactive) | 24.9 µM (inactive) | > 100 µM (inactive) | > 100 µM (inactive) | > 100 µM (inactive) | > 100 µM (inactive) | > 100 µM (inactive) | > 100 µM (inactive) | > 100 µM (inactive) | > 100 µM (inactive) | > 100 µM (inactive) |
